According to ChEMBL document CHEMBL4765227, “Hit to lead optimization of a series of N-[4-(1,3-benzothiazol-2-yl)phenyl]acetamides as monoacylglycerol lipase inhibitors with potential anticancer activity” (Eur J Med Chem, 2016):

Experiments:
Format in all cases: functional
Settings in all cases: read-out: GI
MDA-MB-435 = assay: Growth inhibition of human MDA-MB-435 cells at 10 uM incubated for 48 hrs by sulforhodamine B assay relative to control
EKVX = assay: Growth inhibition of human EKVX cells at 10 uM incubated for 48 hrs by sulforhodamine B assay relative to control
TK-10 = assay: Growth inhibition of human TK-10 cells at 10 uM incubated for 48 hrs by sulforhodamine B assay relative to control
UACC-62 = assay: Growth inhibition of human UACC-62 cells at 10 uM incubated for 48 hrs by sulforhodamine B assay relative to control
CCRF-CEM = assay: Growth inhibition of human CCRF-CEM cells at 10 uM incubated for 48 hrs by sulforhodamine B assay relative to control
K562 = assay: Growth inhibition of human K562 cells at 10 uM incubated for 48 hrs by sulforhodamine B assay relative to control
A498 = assay: Growth inhibition of human A498 cells at 10 uM incubated for 48 hrs by sulforhodamine B assay relative to control
BT-549 = assay: Growth inhibition of human BT-549 cells at 10 uM incubated for 48 hrs by sulforhodamine B assay relative to control
NCI-H460 = assay: Growth inhibition of human NCI-H460 cells at 10 uM incubated for 48 hrs by sulforhodamine B assay relative to control
SNB-19 = assay: Growth inhibition of human SNB-19 cells at 10 uM incubated for 48 hrs by sulforhodamine B assay relative to control
SK-MEL-5 = assay: Growth inhibition of human SK-MEL-5 cells at 10 uM incubated for 48 hrs by sulforhodamine B assay relative to control
SK-MEL-28 = assay: Growth inhibition of human SK-MEL-28 cells at 10 uM incubated for 48 hrs by sulforhodamine B assay relative to control
SK-OV-3 = assay: Growth inhibition of human SK-OV-3 cells at 10 uM incubated for 48 hrs by sulforhodamine B assay relative to control
IGROV-1 = assay: Growth inhibition of human IGROV-1 cells at 10 uM incubated for 48 hrs by sulforhodamine B assay relative to control
T47D = assay: Growth inhibition of human T47D cells at 10 uM incubated for 48 hrs by sulforhodamine B assay relative to control
SK-MEL-2 = assay: Growth inhibition of human SK-MEL-2 cells at 10 uM incubated for 48 hrs by sulforhodamine B assay relative to control

Cc1cc(NCC(=O)Nc2ccc(-c3nc4ccccc4s3)cc2)no1
inhibition of growth at 10 µM (MDA-MB-435): -4.18% | inhibition of growth at 10 µM (EKVX): -7.95% | inhibition of growth at 10 µM (TK-10): 7.91% | inhibition of growth at 10 µM (UACC-62): 13.5% | inhibition of growth at 10 µM (CCRF-CEM): 46.3% | inhibition of growth at 10 µM (K562): 17% | inhibition of growth at 10 µM (A498): 10.3% | inhibition of growth at 10 µM (BT-549): 5.29% | inhibition of growth at 10 µM (NCI-H460): -2.65% | inhibition of growth at 10 µM (SNB-19): 3.47% | inhibition of growth at 10 µM (SK-MEL-5): 12.3% | inhibition of growth at 10 µM (SK-MEL-28): -10.5% | inhibition of growth at 10 µM (SK-OV-3): -19.7% | inhibition of growth at 10 µM (IGROV-1): 11.5% | inhibition of growth at 10 µM (T47D): 19.7%

COc1ccc(NCC(=O)Nc2ccc(-c3nc4ccccc4s3)cc2)cc1
inhibition of growth at 10 µM (MDA-MB-435): -7.51% | inhibition of growth at 10 µM (TK-10): -8.6% | inhibition of growth at 10 µM (UACC-62): 0.37% | inhibition of growth at 10 µM (CCRF-CEM): 40.8% | inhibition of growth at 10 µM (K562): 11.6% | inhibition of growth at 10 µM (BT-549): 15.2% | inhibition of growth at 10 µM (NCI-H460): 0.74% | inhibition of growth at 10 µM (SNB-19): 11.4% | inhibition of growth at 10 µM (SK-MEL-5): 2.74% | inhibition of growth at 10 µM (SK-MEL-2): -15.7% | inhibition of growth at 10 µM (SK-MEL-28): -11.1% | inhibition of growth at 10 µM (SK-OV-3): -7.58% | inhibition of growth at 10 µM (IGROV-1): 7.74% | inhibition of growth at 10 µM (T47D): 31.2%

NS(=O)(=O)c1ccc(NCC(=O)Nc2ccc(-c3nc4ccccc4s3)cc2)cc1
inhibition of growth at 10 µM (MDA-MB-435): 23% | inhibition of growth at 10 µM (TK-10): -5.51% | inhibition of growth at 10 µM (UACC-62): 62% | inhibition of growth at 10 µM (CCRF-CEM): 93.8% | inhibition of growth at 10 µM (K562): 91.6% | inhibition of growth at 10 µM (BT-549): 85.5% | inhibition of growth at 10 µM (NCI-H460): 7.45% | inhibition of growth at 10 µM (SNB-19): 25.7% | inhibition of growth at 10 µM (SK-MEL-5): 28.7% | inhibition of growth at 10 µM (SK-MEL-2): 12.2% | inhibition of growth at 10 µM (SK-MEL-28): 0.58% | inhibition of growth at 10 µM (SK-OV-3): -5.77% | inhibition of growth at 10 µM (IGROV-1): 41% | inhibition of growth at 10 µM (T47D): 53.6%

O=C(Cn1cncn1)Nc1ccc(-c2nc3ccccc3s2)cc1
inhibition of growth at 10 µM (MDA-MB-435): -4.86% | inhibition of growth at 10 µM (EKVX): 9.8% | inhibition of growth at 10 µM (TK-10): -6.22% | inhibition of growth at 10 µM (UACC-62): 4.77% | inhibition of growth at 10 µM (CCRF-CEM): -4.97% | inhibition of growth at 10 µM (K562): 14.2% | inhibition of growth at 10 µM (A498): 11.6% | inhibition of growth at 10 µM (BT-549): 8.47% | inhibition of growth at 10 µM (NCI-H460): 2.97% | inhibition of growth at 10 µM (SNB-19): 6.99% | inhibition of growth at 10 µM (SK-MEL-5): 13.3% | inhibition of growth at 10 µM (SK-MEL-28): -11% | inhibition of growth at 10 µM (SK-OV-3): 0.14% | inhibition of growth at 10 µM (IGROV-1): 7.64% | inhibition of growth at 10 µM (T47D): 35.1%

O=C(CNc1nc(-c2ccc(Cl)cc2)cs1)Nc1ccc(-c2nc3ccccc3s2)cc1
inhibition of growth at 10 µM (MDA-MB-435): -4.48% | inhibition of growth at 10 µM (EKVX): -2.38% | inhibition of growth at 10 µM (TK-10): 33.5% | inhibition of growth at 10 µM (UACC-62): 8.08% | inhibition of growth at 10 µM (CCRF-CEM): 7.04% | inhibition of growth at 10 µM (K562): 3.58% | inhibition of growth at 10 µM (A498): -2.14% | inhibition of growth at 10 µM (BT-549): -6.9% | inhibition of growth at 10 µM (NCI-H460): 8.75% | inhibition of growth at 10 µM (SNB-19): 1.83% | inhibition of growth at 10 µM (SK-MEL-5): 12.3% | inhibition of growth at 10 µM (SK-MEL-28): -10.9% | inhibition of growth at 10 µM (SK-OV-3): 4.97% | inhibition of growth at 10 µM (IGROV-1): 40.9% | inhibition of growth at 10 µM (T47D): 43.9%

Cc1ccc(NCC(=O)Nc2ccc(-c3nc4ccccc4s3)cc2)cc1
inhibition of growth at 10 µM (MDA-MB-435): -1.83% | inhibition of growth at 10 µM (TK-10): -7.12% | inhibition of growth at 10 µM (UACC-62): 14.5% | inhibition of growth at 10 µM (CCRF-CEM): 60.1% | inhibition of growth at 10 µM (K562): -0.15% | inhibition of growth at 10 µM (BT-549): 35.4% | inhibition of growth at 10 µM (NCI-H460): -2.34% | inhibition of growth at 10 µM (SNB-19): 10.5% | inhibition of growth at 10 µM (SK-MEL-5): 11.3% | inhibition of growth at 10 µM (SK-MEL-2): -6.66% | inhibition of growth at 10 µM (SK-MEL-28): -17.2% | inhibition of growth at 10 µM (SK-OV-3): -13.1% | inhibition of growth at 10 µM (IGROV-1): 7.63% | inhibition of growth at 10 µM (T47D): 33.8%

O=C(CNc1nc2ccccc2s1)Nc1ccc(-c2nc3ccccc3s2)cc1
inhibition of growth at 10 µM (MDA-MB-435): -8.66% | inhibition of growth at 10 µM (EKVX): -9.9% | inhibition of growth at 10 µM (TK-10): 3.3% | inhibition of growth at 10 µM (UACC-62): 5.38% | inhibition of growth at 10 µM (CCRF-CEM): -10.5% | inhibition of growth at 10 µM (K562): 4.87% | inhibition of growth at 10 µM (A498): 6.15% | inhibition of growth at 10 µM (BT-549): -6.3% | inhibition of growth at 10 µM (NCI-H460): 0.21% | inhibition of growth at 10 µM (SNB-19): -0.11% | inhibition of growth at 10 µM (SK-MEL-5): -2.93% | inhibition of growth at 10 µM (SK-MEL-28): -13.3% | inhibition of growth at 10 µM (SK-OV-3): -7.21% | inhibition of growth at 10 µM (IGROV-1): 33.4% | inhibition of growth at 10 µM (T47D): 26.1%

CN1CCN(CC(=O)Nc2ccc(-c3nc4ccccc4s3)cc2)CC1
inhibition of growth at 10 µM (MDA-MB-435): 74.6% | inhibition of growth at 10 µM (EKVX): 16.3% | inhibition of growth at 10 µM (TK-10): 5.2% | inhibition of growth at 10 µM (UACC-62): 136% | inhibition of growth at 10 µM (CCRF-CEM): 36.3% | inhibition of growth at 10 µM (K562): 58.2% | inhibition of growth at 10 µM (A498): 40.5% | inhibition of growth at 10 µM (BT-549): 19.4% | inhibition of growth at 10 µM (NCI-H460): 15.3% | inhibition of growth at 10 µM (SNB-19): 10.3% | inhibition of growth at 10 µM (SK-MEL-5): 26.3% | inhibition of growth at 10 µM (SK-MEL-28): 66.2% | inhibition of growth at 10 µM (SK-OV-3): 5.77% | inhibition of growth at 10 µM (IGROV-1): 19.4% | inhibition of growth at 10 µM (T47D): 45.9%
